Structures are written as SMILES. Bridge positions count the residues as written; N and C are the ends. Square brackets hold non-standard residues; d marks the D form. Peptide text beside a SMILES is read from it. * marks the point of attachment. Ac6c = NC1(C(=O)O)CCCCC1; Octanoyl = CCCCCCCC(=O)*; AEEA = NCCOCCOCC(=O)O; Aoc = NCCCCCCCC(=O)O; Ahx = NCCCCCC(=O)O

One assay deals with MCP-1. Nature of the assay: In vitro chemotaxis (trans-well migration) v MCP-1. The class given is cell-based, human. The method, boiled down:
(§1)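 Human THP-1 monocytes (10^4-10^6) with agent at varying concentrations in upper trans-well chamber; IL-8 or MCP-1 in lower chamber at a migration-inducing concentration, 37° C for e.g. 4 hours. Migrated cells quantified by MTT (595 nm) against a THP-1 standard curve; cytotoxicity and non-chemokine chemoattractant controls run.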

For the next assay, the system named is IL-8. Description: In vitro chemotaxis, inhibition v IL-8. The class given is cell-based, human. Also noted: concentration or dose not given beside the values. In short, it runs like this:
as §1

The term EC50 denotes the concentration giving half of the maximal effect. Molecule `CC[C@@H](C)[C@H]1NC(=O)[C@@H](CCC(N)=O)NC(=O)[C@H](N)CSSC[C@H](C(=O)NCCCCCC(=O)O)NC(=O)[C@@H](CC(C)C)NC(=O)[C@@H](CC(=O)O)NC(=O)[C@H]2CCCN2C(=O)[C@@H](CCCCN)NC(=O)[C@@H](CCC(N)=O)NC(=O)[C@@H](CCCCN)NC(=O)[C@@H](Cc2c[nH]c3ccccc23)NC1=O` [Example 143, c(D-Cys-D-Gln-D-Ile-D-Trp-D-Lys-D-Gln-D-Lys-D-Pro-D-Asp-D-Leu-D-Cys)-Ahx-OH] (H-[dC][dQ][dI][dW][dK][dQ][dK][dP][dD][dL][dC][Ahx]-OH; disulfide 1-11) came in with an EC50 in the assay on MCP-1 of 30 nM. For the same molecule, the “v IL-8 inhibition (%)” value in the assay on IL-8 is recorded as 103.5%.

With `CC[C@@H](C)[C@H]1NC(=O)[C@@H](CCC(N)=O)NC(=O)[C@H](N)CSSC[C@H](C(=O)N[C@@H](CC(=O)O)C(=O)NCCCCCCCC(=O)O)NC(=O)[C@@H](CC(C)C)NC(=O)[C@@H](CC(=O)O)NC(=O)[C@H]2CCCN2C(=O)[C@@H](CCCCN)NC(=O)[C@@H](CCC(N)=O)NC(=O)[C@@H](CCCCN)NC(=O)[C@@H](Cc2c[nH]c3ccccc23)NC1=O` [Example 144, c(D-Cys-D-Gln-D-Ile-D-Trp-D-Lys-D-Gln-D-Lys-D-Pro-D-Asp-D-Leu-D-Cys)-Asp-Aoc-OH] (H-[dC][dQ][dI][dW][dK][dQ][dK][dP][dD][dL][dC]D[Aoc]-OH; disulfide 1-11), in the assay with MCP-1, the midpoint of the response, the EC50, lay at 3000 nM. Further, the “v IL-8 inhibition (%)” value in the assay on IL-8 is on record as 25.4%.

`CC[C@@H](C)[C@H]1NC(=O)[C@@H](CCC(N)=O)NC(=O)[C@H](N)CSSC[C@H](C(=O)N[C@@H](CCC(=O)O)C(=O)NCCCCCCCC(=O)O)NC(=O)[C@@H](CC(C)C)NC(=O)[C@@H](CC(=O)O)NC(=O)[C@H]2CCCN2C(=O)[C@@H](CCCCN)NC(=O)[C@@H](CCC(N)=O)NC(=O)[C@@H](CCCCN)NC(=O)[C@@H](Cc2c[nH]c3ccccc23)NC1=O` [Example 145, c(D-Cys-D-Gln-D-Ile-D-Trp-D-Lys-D-Gln-D-Lys-D-Pro-D-Asp-D-Leu-D-Cys)-Glu-Aoc-OH] (H-[dC][dQ][dI][dW][dK][dQ][dK][dP][dD][dL][dC]E[Aoc]-OH; disulfide 1-11) had an EC50 in the assay with MCP-1 of 200 nM. Also, the “v IL-8 inhibition (%)” value in the assay on IL-8 is recorded as 23.8%.

`CCCCCCCC(=O)NCCCC[C@H](NC(=O)[C@@H](CC(=O)O)NC(=O)[C@H]1CSSC[C@@H](N)C(=O)N[C@H](CCC(N)=O)C(=O)N[C@H]([C@H](C)CC)C(=O)N[C@H](Cc2c[nH]c3ccccc23)C(=O)N[C@H](CCCCN)C(=O)N[C@H](CCC(N)=O)C(=O)N[C@H](CCCCN)C(=O)N2CCC[C@@H]2C(=O)N[C@H](CC(=O)O)C(=O)N[C@H](CC(C)C)C(=O)N1)C(=O)O` [Example 147, c(D-Cys-D-Gln-D-Ile-D-Trp-D-Lys-D-Gln-D-Lys-D-Pro-D-Asp-D-Leu-D-Cys)-D-Asp-Lys(Nε-octanoyl)-OH] (H-[dC][dQ][dI][dW][dK][dQ][dK][dP][dD][dL][dC][dD]K(Octanoyl)-OH; disulfide 1-11) came in with an EC50 in the assay on MCP-1 of 500 nM. Moreover, the “v IL-8 inhibition (%)” value in the assay on IL-8 was 29.0%.

For `CCCCCCCC(=O)NCCCC[C@H](NC(=O)[C@H]1CSSC[C@@H](N)C(=O)N[C@H](CCC(N)=O)C(=O)N[C@H]([C@H](C)CC)C(=O)N[C@H](Cc2c[nH]c3ccccc23)C(=O)N[C@H](CCCCN)C(=O)N[C@H](CCC(N)=O)C(=O)N[C@H](CCCCN)C(=O)N2CCC[C@@H]2C(=O)N[C@H](CC(=O)O)C(=O)N[C@H](CC(C)C)C(=O)N1)C(=O)O` [Example 149, c(D-Cys-D-Gln-D-Ile-D-Trp-D-Lys-D-Gln-D-Lys-D-Pro-D-Asp-D-Leu-D-Cys)-Lys(Nε-octanoyl)-OH] (H-[dC][dQ][dI][dW][dK][dQ][dK][dP][dD][dL][dC]K(Octanoyl)-OH; disulfide 1-11), in the assay with MCP-1, the EC50 was 66 nM. Further, the “v IL-8 inhibition (%)” value in the assay with IL-8 is reported as 106.2%.

Turning to `CCCCCCCC(=O)NCCCC[C@H](NC(=O)[C@@H](CCC(=O)O)NC(=O)[C@H](NC(=O)[C@H]1CSSC[C@@H](N)C(=O)N[C@H](CCC(N)=O)C(=O)N[C@H]([C@H](C)CC)C(=O)N[C@H](Cc2c[nH]c3ccccc23)C(=O)N[C@H](CCCCN)C(=O)N[C@H](CCC(N)=O)C(=O)N[C@H](CCCCN)C(=O)N2CCC[C@@H]2C(=O)N[C@H](CC(=O)O)C(=O)N[C@H](CC(C)C)C(=O)N1)C(C)C)C(=O)O` [Example 150, c(D-Cys-D-Gln-D-Ile-D-Trp-D-Lys-D-Gln-D-Lys-D-Pro-D-Asp-D-Leu-D-Cys)-D-Val-D-Glu-Lys(Nε-octanoyl)-OH] (H-[dC][dQ][dI][dW][dK][dQ][dK][dP][dD][dL][dC][dV][dE]K(Octanoyl)-OH; disulfide 1-11), the EC50 in the assay with MCP-1 is 33 nM. For the same molecule, the “v IL-8 inhibition (%)” value in the assay with IL-8 is listed as 100.5%.

`CCCCCCCC(=O)NCCCC[C@H](NC(=O)COCCOCCNC(=O)[C@H]1CSSC[C@@H](N)C(=O)N[C@H](CCC(N)=O)C(=O)N[C@H]([C@H](C)CC)C(=O)N[C@H](Cc2c[nH]c3ccccc23)C(=O)N[C@H](CCCCN)C(=O)N[C@H](CCC(N)=O)C(=O)N[C@H](CCCCN)C(=O)N2CCC[C@@H]2C(=O)N[C@H](CC(=O)O)C(=O)N[C@H](CC(C)C)C(=O)N1)C(=O)O` [Example 151, c(D-Cys-D-Gln-D-Ile-D-Trp-D-Lys-D-Gln-D-Lys-D-Pro-D-Asp-D-Leu-D-Cys)-Doc-Lys(Nε-octanoyl)-OH] (H-[dC][dQ][dI][dW][dK][dQ][dK][dP][dD][dL][dC][AEEA]K(Octanoyl)-OH; disulfide 1-11): in the assay with MCP-1, a half-maximal effect (EC50) was put at 28 nM. The “v IL-8 inhibition (%)” value in the assay on IL-8 came to 103.7%.

The molecule `CCCCCCCC(=O)NCCCC[C@@H]1NC(=O)[C@@H](CC(C)C)NC(=O)[C@@H](CC(=O)O)NC(=O)[C@H]2CCCN2C(=O)[C@@H](CCCCN)NC(=O)[C@@H](CCC(N)=O)NC(=O)[C@@H](CCCCN)NC(=O)[C@@H](Cc2c[nH]c3ccccc23)NC(=O)[C@@H]([C@H](C)CC)NC(=O)[C@@H](CCC(N)=O)NC(=O)[C@H](N)CSSC[C@H](C(N)=O)NC1=O` [Example 153, c(D-Cys-D-Gln-D-Ile-D-Trp-D-Lys-D-Gln-D-Lys-D-Pro-D-Asp-D-Leu-Lys(Nε-octanoyl)-D-Cys)-NH2] (H-[dC][dQ][dI][dW][dK][dQ][dK][dP][dD][dL]K(Octanoyl)[dC]-NH2; disulfide 1-12) gave an EC50 in the assay with MCP-1 of more than 1000 nM. In addition, in the assay on IL-8, the “v IL-8 inhibition (%)” value is 4.1%.

Consider `CCCCCCCC(=O)NCCCC[C@@H]1NC(=O)[C@@H](CC(=O)O)NC(=O)[C@H]2CCCN2C(=O)[C@@H](CCCCN)NC(=O)[C@@H](CCC(N)=O)NC(=O)[C@@H](CCCCN)NC(=O)[C@@H](Cc2c[nH]c3ccccc23)NC(=O)[C@@H]([C@H](C)CC)NC(=O)[C@@H](CCC(N)=O)NC(=O)[C@H](N)CSSC[C@H](C(=O)O)NC(=O)[C@@H](CC(C)C)NC1=O` [Example 154, c(D-Cys-D-Gln-D-Ile-D-Trp-D-Lys-D-Gln-D-Lys-D-Pro-D-Asp-Lys(Nε-octanoyl)-D-Leu-D-Cys)-OH] (H-[dC][dQ][dI][dW][dK][dQ][dK][dP][dD]K(Octanoyl)[dL][dC]-OH; disulfide 1-12), for which the EC50 in the assay with MCP-1 is more than 1000 nM. Also, the “v IL-8 inhibition (%)” value in the assay with IL-8 worked out at 9.8%.

Molecule `CC(=O)N[C@H]1CSSC[C@@H](C(N)=O)NC(=O)[C@H](CCC(N)=O)NC(=O)C2(CCCCC2)NC(=O)[C@H](Cc2c[nH]c3ccccc23)NC(=O)[C@H](CCCCN)NC(=O)[C@H](CCC(N)=O)NC(=O)[C@H](CCCCN)NC(=O)[C@@H]2CCCN2C(=O)[C@H](CC(=O)O)NC(=O)[C@H](CC(C)C)NC1=O` [Example 155, Ac-c(Cys-Leu-Asp-Pro-Lys-Gln-Lys-Trp-A6c-Gln-Cys)-NH2] (Ac-CLDPKQKW[Ac6c]QC-NH2; disulfide 1-11) had an EC50 in the assay with MCP-1 of more than 1000 nM. Moreover, the “v IL-8 inhibition (%)” value in the assay on IL-8 is −1.5%.
